Entries after “also recorded” stand apart in the source; their conditions may differ.
Legend:
[1] = target: T1, IR isoform B (IR-B) (Homo sapiens, UniProt P06213); settings: cis dicarba insulin, footnote b, ref [9], cited from earlier work
T1 construct: expressed in transfected cells; host or cells: R-IR-B cells (IGF-1R knockout mouse embryonic fibroblasts over-expressing human IR-B); Triton X-100 lysate captured on anti-IR antibody 83-7

[2] = target: T2, IGF-1R (Homo sapiens, UniProt P08069); settings: cis dicarba insulin, footnote b; ref [9]; cited from earlier work
T2 construct: expressed in transfected cells; host or cells: P6 cells (BALB/c3T3 mouse fibroblasts overexpressing human IGF-1R); Triton X-100 lysate captured on anti-IGF-1R antibody 24-31

[3] = test system: mitogenic signalling; settings: ref [9], [30]; cited from earlier work
[4] = test system: ERK 1 / ERK 2 / p90RSK phosphorylation in R^-IR-B cells; assay: Western blot dose-response, MAPK pathway, R-IR-B fibroblasts; format: cell-based, mouse cells; human IR-B; settings: 0.1–100 nM, 10 min, 2-way ANOVA
Method: (§5) R/^-IR-B (80,000 cells/well) or L6 IR-A cells (240,000 cells/well) were seeded in 6-well plates and allowed to grow to confluence (~ 48 hours). Prior to stimulation, cells were serum starved in SFM/1% BSA for 4 h. […] Lysates were scraped from the well, spun at 13,000 rpm for 3 min at 0°C to remove cell debris and stored at -80°C. Lysate protein concentrations were quantified using Bio-Rad DC™ Protein Assay and 20μg of each sample was separated in 10% glycine gels under reducing conditions. Transferred blots were blocked for 1 h at room temperature in TBST containing 3% BSA and probed with primary antibodies (Pathscan Antibody, pAkt(Thr308), pGSK(Ser9), pAS160(Thr642)) in blocking solution (TBST containing 3% BSA) overnight at 4°C. […]
(§6) Phosphorylation levels are expressed as percentage of level detected […]
(§7) were determined via 2-way ANOVA (bars above graph); difference comparing each stimulating concentration (pink asterisks) were further analyzed using Holm-Sidak test. ns: non-significant; * (P ≤ 0.05), ** (P ≤ 0.01); *** (P ≤ 0.001); **** (P ≤ 0.0001).

[5] = test system: p52 Shc (phospho-Tyr239/Tyr240) in L6 IR-A cells; assay: p52 Shc phosphorylation time-course (western blot); format: cell-based, rat cells; human IR-A; settings: 10 nM
Method: (§1) Figure 6 Cis-dicarba analogues are incapable of promoting IR-A internalization due to inability to promote phosphorylation of IR-A, IRS-1 and Shc. […] Data are presented as % of surface receptor/total receptor followed by normalisation with % of surface receptor in SFM at t = 0; i.e. SFM at t = 0 is equivalent to 100%. […] All data are the mean ± S.E.M. n = at least 3 independent experiments. Error bars are shown when greater than the size of the symbols. Statistical significance were determined via one-way repeated measures ANOVA followed by Dunnets multiple test.
R/^-IR-B (80,000 cells/well) or L6 IR-A cells (240,000 cells/well) were seeded in 6-well plates and allowed to grow to confluence (~ 48 hours). Prior to stimulation, cells were serum starved in SFM/1% BSA for 4 h. […] Lysates were scraped from the well, spun at 13,000 rpm for 3 min at 0°C to remove cell debris and stored at -80°C. Lysate protein concentrations were quantified using Bio-Rad DC™ Protein Assay and 20μg of each sample was separated in 10% glycine gels under reducing conditions. […]
Dose response blots were developed in ECL reagent according to manufacturer’s instruction and imaged in Fujiflim LAS-4000 Luminescent Image Analyzer. […] All data were analysed with LI-COR Image Studio™ software and each band intensity was normalized to tubulin of its respective lane.

[6] = test system: ERK 1/2 / p90RSK phosphorylation in L6 IR-A cells; assay: Western blot time-course, MAPK pathway, L6 IR-A; format: cell-based, rat cells; human IR-A; settings: 10 nM, 0–30 min
Method: (§8) R/^-IR-B (80,000 cells/well) or L6 IR-A cells (240,000 cells/well) were seeded in 6-well plates and allowed to grow to confluence (~ 48 hours). Prior to stimulation, cells were serum starved in SFM/1% BSA for 4 h. […] Lysates were scraped from the well, spun at 13,000 rpm for 3 min at 0°C to remove cell debris and stored at -80°C. Lysate protein concentrations were quantified using Bio-Rad DC™ Protein Assay and 20μg of each sample was separated in 10% glycine gels under reducing conditions. Transferred blots were blocked for 1 h at room temperature in TBST containing 3% BSA and probed with primary antibodies (Pathscan Antibody, pAkt(Thr308), pGSK(Ser9), pAS160(Thr642)) in blocking solution (TBST containing 3% BSA) overnight at 4°C. All blots were also probed with anti-β-tubulin as a loading control. Blots were washed six times for 5 min each in TBST then probed with either HRP-conjugated (dose-response) or fluorophore-conjugated (time-course) secondary antibodies for 1 hour at room temperature. The washing was then repeated.
(§9) Dose response blots were developed in ECL reagent according to manufacturer’s instruction and imaged in Fujiflim LAS-4000 Luminescent Image Analyzer. Time course blots were imaged with an Odyssey® CLx Imaging System. All blots were performed at least three times. All data were analysed with LI-COR Image Studio™ software and each band intensity was normalized to tubulin of its respective lane.

[7] = test system: Akt / GSK-3β / S6 / AS160 phosphorylation in L6 IR-A cells; assay: Western blot dose-response, PI3K/Akt pathway (Akt, GSK-3β, S6, AS160), L6 IR-A; format: cell-based, rat cells; human IR-A
Method: as §8
(§10) Dose response blots were developed in ECL reagent according to manufacturer’s instruction and imaged in Fujiflim LAS-4000 Luminescent Image Analyzer. […] All blots were performed at least three times. All data were analysed with LI-COR Image Studio™ software and each band intensity was normalized to tubulin of its respective lane.

[8] = test system: C57BL6 male mice; assay: Insulin tolerance test; format: in vivo, mouse; settings: 0.75 IU/kg ip
[9] = test system: IRS-1 in L6 IR-A cells; assay: IRS-1 activation time-course (immunoprecipitation, pTyr20); format: cell-based, rat cells; human IR-A; settings: 10 nM
Method: as §1
Activated IRS-1 was determined using immunoprecipitation. Anti-IRS-1 antibody(4ug) was pre incubated with protein G agarose overnight at 4°C before adding to lysates to immunoprecipitate IRS-1 overnight at 4°C. Complexes were washed three times in PBS, boiled under reducing conditions and samples separated on 10% glycine gels. Transferred blots were blocked for 1 h at room temperature in TBST containing 3% BSA and probed with primary antibodies (anti-IRS-1 for total IRS-1 protein, or anti pTyr20 for total phosphorylated protein in immunoprecipitation) in blocking solution (TBST containing 3% BSA) overnight at 4°C. Blots were washed six times for 5 min each in TBST then probed with fluorophore-conjugated secondary antibodies (donkey anti-mouse 680RD and anti- rabbit 800CW) for 1 hour at room temperature. […]

[10] = test system: metabolic activity; settings: ref [9], [30]; cited from earlier work
[11] = test system: IR-B; settings: ref [9]; cited from earlier work
Excerpt: (§2) This contrasts with cis-dicarba insulin which wa ...

[12] = target: T2, IGF-1R; settings: ref [9]; cited from earlier work
Excerpt: as §2

[13] = target: T3, IR-A (phospho-Tyr1150/Tyr1151) (Homo sapiens, UniProt P06213); assay: IR-A phosphorylation Tyr1150/Tyr1151 time-course (western blot); format: cell-based; settings: L6 IR-A, 10 nM, 0–10 min
T3 construct: expressed in transfected cells; host or cells: L6 rat skeletal myoblasts over-expressing human IR-A (hIR-A L6), from Novo Nordisk
Excerpt: (§3) All data are the mean ± S.E.M. n = at least 3 independent experiments. Error bars are shown when greater than the size of the symbols.

[14] = test system: IR; settings: ref [9], [30]; cited from earlier work
[15] = test system: Akt / GSK-3β / S6 phosphorylation in L6 IR-A cells; assay: Western blot time-course, PI3K/Akt pathway, L6 IR-A; format: cell-based, rat cells; human IR-A; settings: 10 nM, 0–30 min, p-Akt Ser473, p-Akt Thr308, p-GSK3β, p-S6
Method: as §8, §9

[16] = test system: IR-A; assay: IR-A receptor internalization; format: cell-based, human; settings: 10 nM, 2 hours post-stimulation
Method: as §3
(§4) Assays were performed in triplicate in at least three independent experiments.

[17] = test system: NIH3T3-L1 adipocytes; assay: Glucose uptake assay (2-deoxyglucose); format: cell-based; settings: paired T-test; n = at least 3
Method: NIH3T3-L1 myoblasts (up to passage 20) grown in DMEM supplemented with 10% newborn calf serum, 2mM L-glutamine, 100 U/l penicillin, 100 µg/L streptomycin at 37°C were seeded into 24-well plates at 5 x 10^3 cells/well and grown for 8 days to confluence. They were then differentiated into adipocytes as described in Govers et al. ([51]). After differentiation the NIH3T3-L1 cells express 37,000 IGF-1R and 250,000 IR per cell ([52]). […] Briefly, 3T3-L1 adipocytes were serum starved in SFM/1% BSA for 4 h, washed twice with Krebs-Ringer phosphate buffer (KRP; 12.5mM HEPES, 120mM NaCl, 6mM KCl, 1.2mM MgSO4, 1mM CaCl2, 0.4mM Na2HPO4, 0.6mM Na2HPO4 (pH7.4)) containing 1% BSA and incubated for 15min at 37°C. […] For the final 10 min 2-deoxyglucose (DOG) uptake was initiated by the addition of 50 µM cold deoxyglucose and 1 µCi ^3H –deoxyglucose per well. The assay was terminated by rapidly washing the cells three times with ice-cold KRP buffer. Cells were solubilized in 0.5 M NaOH/0.1% SDS and ^3H content was determined by scintillation counting. Nonspecific 2-DOG uptake was determined in the presence of 50μM cytochalasin B. Assays were performed in triplicate in at least three independent experiments.

[18] = test system: IR; settings: KIRA; compared to insulin; ref [9]; cited from earlier work
Excerpt: This is similar to the poorly mitogenic S597 peptide, which also promoted slowe ...

[19] = test system: Akt / GSK-3β / S6 / AS160 phosphorylation in R^-IR-B cells; assay: Western blot dose-response, PI3K/Akt pathway, R-IR-B fibroblasts; format: cell-based, mouse cells; human IR-B; settings: 10 min, significant difference only at 0.1 nM (p* ≤ 0.05 to p** ≤ 0.01)
Method: as §5, §6, §7

[20] = test system: ERK 1 / ERK 2 / p90RSK phosphorylation in L6 IR-A cells; assay: Western blot dose-response, MAPK pathway (ERK1, ERK2, p90RSK), L6 IR-A; format: cell-based, rat cells; human IR-A
Method: as §8, §10

[21] = test system: L6 rat skeletal myoblasts overexpressing human IR-A (L6 IR-A cells); assay: DNA synthesis assay (EdU incorporation); format: cell-based; settings: 18 h, 0.01 - 300 nM, compared to native insulin
Method: as §4

[22] = dose-response, compared to insulin

## cis-[Δ^4A6,11]-dicarba human insulin [cis dicarba insulin]
[1]; non-statistically significant
  Affinity (% Insulin ± SEM), IR-B: 100 % Insulin
[1]
  IC50: 1.07 ± 0.3 nM
[2]
  Affinity (% Insulin ± SEM), IGF-1R: ~100 % Insulin
  IC50: > 300 nM
[3]
  mitogenic response (in words): poor at activating a mitogenic response
[4]
  p-Erk 1 (T202/Y204), overall significance vs parent: * (P ≤ 0.05)
[5]
  Shc activation (in words): significantly less potent in activating both IRS-1 and Shc
[5]; 0–10 min, compared to insulin
  Shc activation relative to insulin: ~ 30%
[6]; compared to parent
  MAPK signalling activation, ERK1/2 and p90RSK (in words): lower level of activation of MAPK signalling
[6]; compared to parent peptides
  ERK 1/2 phosphorylation maximal level (in words): never achieved the maximal level attained through stimulation by their corresponding parent peptides
[7]; L6 IR-A, 10 min, significant difference only at 0.1 nM (p* ≤ 0.05 to p** ≤ 0.01)
  Akt phosphorylation at Ser473 (in words): generally similar to their parent peptides
[7]; [22]
  PI3K/Akt pathway activation (in words): equal potency in activating the PI3K/Akt pathway
[8]; chow fed mice, non-fasting, 2 hours post-treatment
  blood glucose lowering (in words): no statistical difference
[8]; insulin vs cis-dicarba insulin, glargine vs cis-dicarba glargine, paired T-test, n = 5-6 per group
  blood glucose change, significance vs parent (AUC): ns
[9]
  IRS-1 activation (in words): significantly less potent in activating both IRS-1 and Shc
[9]; 0–10 min, compared to insulin
  IRS-1 activation relative to insulin: ~ 30%
[10]
  metabolic activity (in words): promotes equivalent metabolic activity
[11]
  binding and activation of IR-B (in words): equipotent to insulin in both binding and activation of IR-B and IGF-1R
[12]
  binding and activation of IGF-1R (in words): equipotent to insulin in both binding and activation of IR-B and IGF-1R
[13]
  IR-A Tyr1150/Tyr1151 phosphorylation (in words): much slower to stimulate receptor activation; also recorded: reduced kinetics of activation compared to insulin
[13]; % of that of insulin
  IR-A Tyr1150/Tyr1151 phosphorylation, response relative to insulin: ~ 20%
[14]
  IR binding (in words): binds the IR with equal affinity to insulin
[15]
  kinetics of activation of the PI3K/Akt pathway (in words): essentially the same
[16]
  IR-A internalization (in words): significantly impaired ability to promote IR-A internalization, with virtually all receptor remaining on the surface 2 hours post-stimulation; also recorded: ineffective in promoting IR internalisation
[17]
  glucose uptake, significance of difference between insulin, cis-dicarba insulin and cis-dicarba glargine: ns
[18]
  total receptor phosphorylation in kinase receptor activation assay (in words): almost as potent as insulin in a kinase receptor activation assay
[19]
  Akt phosphorylation at Ser473 (in words): generally similar to their parent peptides
[20]; 0.1–10 nM, t = 10 min, p* ≤ 0.05 to p**** ≤ 0.0001 vs parent
  phosphorylation of ERK 1, ERK 2 and p90RSK (in words): significantly reduced phosphorylation levels of ERK 1, ERK 2 and p90RSK
[20]; L6 IR-A, 0.1–100 nM, 10 min, 2-way ANOVA
  p-p90RSK (S380), overall significance vs parent: * (P ≤ 0.05)
[20]; [22]
  MAPK pathway activation (in words): significantly less effective than insulin or glargine, respectively, in activating the MAPK pathway; also recorded: significantly less potent at activating the MAPK pathway
[21]
  DNA synthesis, fold reduction in mitogenic potency vs native insulin: ~ 5 fold
